Laboratory results from paper PMC2358886, “Evolution of pharmacologic specificity in the pregnane X receptor” (BMC Evolutionary Biology, 2008).
Like-named read-outs stand apart in the source and are kept apart here.

Legend:
human PXR [1] = target: T1, human PXR (Homo sapiens, UniProt O75469)
T1 sequence (O75469 1-434): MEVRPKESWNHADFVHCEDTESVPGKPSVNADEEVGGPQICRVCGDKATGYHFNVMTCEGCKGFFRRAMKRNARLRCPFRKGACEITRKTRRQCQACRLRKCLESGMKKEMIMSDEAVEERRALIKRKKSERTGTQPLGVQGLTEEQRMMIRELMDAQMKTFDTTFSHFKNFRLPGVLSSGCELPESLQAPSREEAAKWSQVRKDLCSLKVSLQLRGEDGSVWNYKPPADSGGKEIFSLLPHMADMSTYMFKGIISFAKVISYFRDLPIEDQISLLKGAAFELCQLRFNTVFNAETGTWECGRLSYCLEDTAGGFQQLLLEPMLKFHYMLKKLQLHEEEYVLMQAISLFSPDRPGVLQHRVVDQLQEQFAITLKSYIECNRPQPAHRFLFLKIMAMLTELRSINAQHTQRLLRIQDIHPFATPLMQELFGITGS

zebrafish PXR [2] = target: T2, zebrafish PXR (Danio rerio, UniProt A5WYG8); details: for zfPXR Activity: -log(EC50), EC50 in molar units, activation of zebrafish PXR
T2 sequence (A5WYG8 144-430): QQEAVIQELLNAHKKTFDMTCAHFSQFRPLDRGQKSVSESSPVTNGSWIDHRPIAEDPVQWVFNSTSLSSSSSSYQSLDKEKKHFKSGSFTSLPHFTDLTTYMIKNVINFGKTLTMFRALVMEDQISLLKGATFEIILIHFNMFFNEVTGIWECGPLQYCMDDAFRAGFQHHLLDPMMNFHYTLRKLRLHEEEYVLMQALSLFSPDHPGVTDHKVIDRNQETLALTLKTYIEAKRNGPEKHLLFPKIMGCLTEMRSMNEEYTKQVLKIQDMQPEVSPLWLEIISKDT

HepG2 cells [3] = test system: HepG2 cells
chicken PXR [4] = target: T3, chicken PXR (Gallus gallus, UniProt Q9DFH3)
T3 sequence (Q9DFH3 1-391): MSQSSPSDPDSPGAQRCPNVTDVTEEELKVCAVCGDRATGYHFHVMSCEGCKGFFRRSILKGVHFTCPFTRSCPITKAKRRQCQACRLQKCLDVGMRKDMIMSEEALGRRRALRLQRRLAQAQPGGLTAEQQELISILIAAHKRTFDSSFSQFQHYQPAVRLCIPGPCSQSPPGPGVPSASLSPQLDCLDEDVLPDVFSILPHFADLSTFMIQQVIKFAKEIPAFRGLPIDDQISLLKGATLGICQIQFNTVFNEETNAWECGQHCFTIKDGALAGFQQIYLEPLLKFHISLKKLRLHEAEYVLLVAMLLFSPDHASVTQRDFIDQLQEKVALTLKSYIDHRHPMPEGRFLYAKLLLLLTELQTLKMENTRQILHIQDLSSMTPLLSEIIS

zebrafish PXR [5] = target: T2, zebrafish PXR; experiment: cell-based
chicken PXR [6] = target: T3, chicken PXR; experiment: cell-based
human PXR [7] = target: T1, human PXR; experiment: PXR activation luciferase reporter assay, human PXR in HepG2-NTCP cells
mouse PXR [8] = target: T4, mouse PXR (Mus musculus, UniProt O54915); details: for Mouse PXR Activity: -log(EC50), EC50 in molar units
T4 sequence (O54915 1-431): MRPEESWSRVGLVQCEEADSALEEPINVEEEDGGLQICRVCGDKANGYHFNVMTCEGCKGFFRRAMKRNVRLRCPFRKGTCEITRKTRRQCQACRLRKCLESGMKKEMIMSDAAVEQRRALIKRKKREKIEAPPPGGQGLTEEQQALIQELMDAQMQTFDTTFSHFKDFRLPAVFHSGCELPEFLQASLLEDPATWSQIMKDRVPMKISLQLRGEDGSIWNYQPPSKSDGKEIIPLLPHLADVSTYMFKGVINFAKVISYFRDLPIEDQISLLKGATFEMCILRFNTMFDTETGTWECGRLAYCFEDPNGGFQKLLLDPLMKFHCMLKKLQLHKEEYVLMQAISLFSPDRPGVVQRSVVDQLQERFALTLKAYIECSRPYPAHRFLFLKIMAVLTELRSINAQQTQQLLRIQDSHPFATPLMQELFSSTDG

rat PXR [9] = target: T5, rat PXR (Rattus norvegicus, UniProt Q9R1A7); details: for Rat PXR Activity: -log(EC50), EC50 in molar units
T5 sequence (Q9R1A7 1-431): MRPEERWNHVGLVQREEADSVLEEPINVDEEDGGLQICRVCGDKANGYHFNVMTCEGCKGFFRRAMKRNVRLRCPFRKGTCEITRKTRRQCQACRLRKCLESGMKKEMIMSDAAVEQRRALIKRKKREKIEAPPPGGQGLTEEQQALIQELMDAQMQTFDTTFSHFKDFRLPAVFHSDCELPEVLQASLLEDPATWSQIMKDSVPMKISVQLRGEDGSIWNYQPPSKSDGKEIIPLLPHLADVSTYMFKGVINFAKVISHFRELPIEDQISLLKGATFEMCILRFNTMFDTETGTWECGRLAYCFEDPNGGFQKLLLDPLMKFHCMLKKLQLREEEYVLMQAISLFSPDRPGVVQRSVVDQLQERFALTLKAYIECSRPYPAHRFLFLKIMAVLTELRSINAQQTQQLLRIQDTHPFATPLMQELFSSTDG

rat PXR [10] = target: T5, rat PXR; experiment: cell-based
rabbit PXR = target: T6, rabbit PXR (Oryctolagus cuniculus, UniProt Q9TU02); experiment: PXR activation luciferase reporter assay, rabbit PXR; details: for Rabbit PXR efficacy, ε: relative to 50 μM 5α-pregnan-3,20-dione, assigned an efficacy of 1.0; for Rabbit PXR Activity: -log(EC50), EC50 in molar units
T6 sequence (Q9TU02 1-411): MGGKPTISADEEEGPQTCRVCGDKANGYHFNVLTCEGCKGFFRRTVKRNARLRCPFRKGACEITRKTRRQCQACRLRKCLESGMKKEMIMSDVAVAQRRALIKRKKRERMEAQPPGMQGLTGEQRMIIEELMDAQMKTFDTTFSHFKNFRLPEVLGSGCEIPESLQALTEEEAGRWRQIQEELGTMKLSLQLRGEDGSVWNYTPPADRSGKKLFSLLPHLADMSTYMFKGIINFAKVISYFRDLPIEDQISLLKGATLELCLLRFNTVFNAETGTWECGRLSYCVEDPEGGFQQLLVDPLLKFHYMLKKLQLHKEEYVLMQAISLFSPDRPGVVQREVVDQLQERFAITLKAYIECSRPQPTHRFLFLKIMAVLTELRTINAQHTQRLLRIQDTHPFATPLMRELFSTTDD

mouse PXR [11] = target: T4, mouse PXR; experiment: cell-based
HepG2 cells [12] = experiment: Toxicity assays in HepG2 cells (MTT and alamar blue reduction); details: lowest concentration that produced significant toxicity in the HepG2 cells
[13] = relative to 20 μM 5α-androstan-3α-ol, assigned an efficacy of 1.0
[14] = hPXR Activity, -log(EC50), EC50 in molar units, activation of human PXR
[15] = relative to 20 μM pregnenolone 16α-carbonitrile, assigned an efficacy of 1.0
[16] = -log(EC50), EC50 in molar units
[17] = -log(EC50), EC50 in molar units, activation of human PXR

SMILES: C[C@]12CC[C@@H](O)C[C@@H]1CC[C@@H]1[C@@H]2CC[C@]2(C)[C@@H](O)CC[C@@H]12 [AN1, 5α-Androstan-3α,17β-diol]
- hPXR Efficacy (human PXR [1]; human): 0.68
- zfPXR Efficacy (zebrafish PXR [2]; [13]): 0.84
- Toxicity (HepG2 cells [3]): None
- Chicken PXR efficacy, ε (chicken PXR [4]; relative to 20 μM nifedipine, assigned an efficacy of 1.0): 2.28
- EC50 (zebrafish PXR [5]; zfPXR Activity, -log(EC50), EC50 in molar units, activation of zebrafish PXR): 6.46 µM
- EC50 (chicken PXR [6]): 8.51 µM
- EC50 (human PXR [7]; [14]): 4.17 µM

SMILES: C[C@@]12CCC[C@H]1[C@@H]1CC[C@H]3C[C@H](O)CC[C@]3(C)[C@H]1CC2 [AN3, 5α-Androstan-3α-ol]
- hPXR Efficacy (human PXR [1]; human): 0.5
- zfPXR Efficacy (zebrafish PXR [2]; [13]): 1.00
- Toxicity (HepG2 cells [3]): None
- Chicken PXR efficacy, ε (chicken PXR [4]; chicken): 0.85
- EC50 (zebrafish PXR [5]): 4.57 µM
- EC50 (chicken PXR [6]): 4.17 µM
- EC50 (human PXR [7]; [14]): 6.31 µM

SMILES: C[C@]12CC[C@H](O)C[C@@H]1CC[C@@H]1[C@@H]2CC[C@]2(C)C=CC[C@@H]12 [AN21, 5α-Androst-16-en-3β-ol]
- zfPXR Efficacy (zebrafish PXR [2]; zebrafish): 2.11
- Toxicity (HepG2 cells [3]; human, 24 hr): 50 µM
- Chicken PXR efficacy, ε (chicken PXR [4]; chicken): 2.99
- EC50 (zebrafish PXR [5]): 3.31 µM
- EC50 (chicken PXR [6]): 7.24 µM
- EC50 (human PXR [7]): 4.79 µM

SMILES: C[C@]12CCC(=O)C[C@@H]1CC[C@@H]1[C@@H]2CC[C@]2(C)C=CC[C@@H]12 [AN22, 5α-Androst-16-en-3-one]
- zfPXR Efficacy (zebrafish PXR [2]; zebrafish): 0.68
- Toxicity (HepG2 cells [3]; human, 24 hr): 100 µM
- Chicken PXR efficacy, ε (chicken PXR [4]; chicken): 0.77
- EC50 (zebrafish PXR [5]): 2.63 µM
- EC50 (chicken PXR [6]): 10.2 µM
- EC50 (human PXR [7]): 3.02 µM

SMILES: CC(CCC(=O)NCC(=O)O)C1CCC2C3C(O)CC4CC(O)CCC4(C)C3CCC12C (stereo not drawn) [BI006, Glycochenodeoxycholic acid]
- Chicken PXR efficacy, ε (chicken PXR [4]; chicken): 0.41
- EC50 (chicken PXR [6]): 25.1 µM

SMILES: C[C@H](CCC(=O)O)[C@H]1CC[C@H]2[C@@H]3CC[C@@H]4C[C@H](O)CC[C@]4(C)[C@H]3C[C@H](O)[C@]12C [BI008, Deoxycholic acid]
- Mouse PXR Activity (mouse PXR [8]): No effect
- Rat PXR efficacy, ε (rat PXR [9]; [15]): 0.32
- Chicken PXR Activity (chicken PXR [4]): No effect
- EC50 (rat PXR [10]): 10 µM
- EC50 (rabbit PXR): 36.3 µM
- Rabbit PXR efficacy, ε (rabbit PXR): 0.37

SMILES: C[C@H](CCC(=O)NCCS(=O)(=O)O)[C@H]1CC[C@H]2[C@@H]3[C@H](O)C[C@@H]4C[C@H](O)CC[C@]4(C)[C@H]3C[C@H](O)[C@]12C [BI022, Taurocholic acid]
- Rat PXR Activity (rat PXR [9]): No effect
- Chicken PXR Activity (chicken PXR [4]): No effect
- EC50 (mouse PXR [11]): 85.1 µM

SMILES: CC(C)CCC[C@@H](C)[C@H]1CC[C@H]2[C@@H]3[C@H](O)C[C@@H]4C[C@H](O)CC[C@]4(C)[C@H]3C[C@H](O)[C@]12C [BI023, 5β-Cholestan-3α,7α,12α-triol]
- Mouse PXR efficacy, ε (mouse PXR [8]; [15]): 1.23
- Rat PXR efficacy, ε (rat PXR [9]; [15]): 0.72
- Chicken PXR efficacy, ε (chicken PXR [4]; chicken): 0.27
- EC50 (mouse PXR [11]): 1.41 µM
- EC50 (rat PXR [10]): 2.24 µM
- EC50 (chicken PXR [6]): 1.29 µM
- EC50 (rabbit PXR): 3.89 µM
- Rabbit PXR efficacy, ε (rabbit PXR): 0.37

SMILES: C[C@H](CCC(=O)NCCS(=O)(=O)O)[C@H]1CC[C@H]2[C@@H]3[C@@H](O)[C@@H](O)[C@@H]4C[C@H](O)CC[C@]4(C)[C@H]3CC[C@]12C [BI046, 5β-Cholanic acid-3α,6β,7β-triol N-(2-sulfoethyl)-amide]
- zfPXR Activity (zebrafish PXR [2]): None
- Mouse PXR Activity (mouse PXR [8]): No effect
- Rat PXR Activity (rat PXR [9]): No effect
- Chicken PXR Activity (chicken PXR [4]; [16]): No effect
- Rabbit PXR Activity (rabbit PXR): No effect
- Toxicity (HepG2 cells [12]): None
- hPXR Activity (human PXR [7]; [17]): None

SMILES: c1ccc2c(c1)cc1ccc3cccc4ccc2c1c34 [MI3, Benzo [a]pyren]
- hPXR Efficacy (human PXR [1]): 0.55
- zfPXR Efficacy (zebrafish PXR [2]): 0.06
- zfPXR Activity (zebrafish PXR [2]): 4.00
- Toxicity (HepG2 cells [3]): 100 µM
- Mouse PXR efficacy, ε (mouse PXR [8]): 0.94
- Mouse PXR Activity (mouse PXR [8]): 4.86
- Rat PXR efficacy, ε (rat PXR [9]): 0.45
- Rat PXR Activity (rat PXR [9]): 4.85
- Chicken PXR efficacy, ε (chicken PXR [4]): 0.50
- Chicken PXR Activity (chicken PXR [4]; [16]): 4.40
- Rabbit PXR Activity (rabbit PXR): No effect
- hPXR Activity (human PXR [7]; [17]): 4.75

SMILES: CC(=O)[C@H]1CC[C@H]2[C@@H]3CC[C@@H]4CC(=O)CC[C@]4(C)[C@H]3CC[C@]12C [PR2, 5β-Pregnan-3,20-dione]
- hPXR Efficacy (human PXR [1]; human): 0.97
- zfPXR Efficacy (zebrafish PXR [2]; zebrafish): 0.85
- Toxicity (HepG2 cells [3]): None
- Mouse PXR efficacy, ε (mouse PXR [8]; mouse): 5.36 (ε = 0.84)
- Chicken PXR efficacy, ε (chicken PXR [4]; chicken): 5.59 (ε = 0.81)
- EC50 (zebrafish PXR [5]): 0.832 µM
- EC50 (mouse PXR [11]): 4.37 µM
- EC50 (rat PXR [10]): 5.75 µM
- EC50 (chicken PXR [6]): 2.57 µM
- EC50 (rabbit PXR): 12.6 µM
- EC50 (human PXR [7]; hPXR Activity): 2.57 µM
